Holding throughout (type): in vivo
Assay [1] relates to two-spotted spider mite (Tetranychus urticae). The experiment in a line: Miticidal test against two-spotted spider mite (Test Example 1). The conditions noted are these: 120 h, 5th day after treatment, larvae and nimphs on French bean, 26° C. The text has this:
Each formulation containing an active ingredient was dispersed in water to obtain a dispersion of each active ingredient having a concentration of 800 or 200 ppm. Each of French bean seedlings with only on primary leaf left, was transplanted to a cup having a diameter of 7 cm and a height of 4 cm. About 30 larvae and […] of two-spotted spider mite (Tetranychus urticae) were infested to the leaf of the French bean. Then, the French bean was dipped in the dispersion having the concentration of 800 ppm or 200 ppm for about 10 seconds, then dried in air and kept in a constant temperature chamber with lightening at 26° C. On the 5th day after the treatment, dead mites were counted, and the mortality was calculated by the following equation: [formula]

For assay [2], the system named is house fly (Musca domestica). The experiment in a line: Egg hatch inhibition test by the treatment of adults of house fly (Test Example 6). The conditions noted are these: po, 100 μg/g in diet of adult females for 3 days, unhatched eggs assessed one day after collection, read-out: ratio of the egg hatch inhibition (REHI). The procedure: Sugar and skim milk were mixed in a weight ratio of 1:1, and 2 g of the mixture was put into a Petri dish having a diameter of 5.5 cm. 0.5 ml of an acetone solution containing the active ingredient was added to the mixture in the Petri dish. After acetone evaporated, the treated mixture was thoroughly mixed, and the concentration of the active ingredient was adjusted to 100 μg/g. Twenty non-mating females of house fly (Musca domestica) were allowed to feed on the poisoned diet (the treated mixture) in a cage. After 3 days, the diet was changed to the untreated mixture, then 20 non-mating males were released into the cage for mating. On the 3rd day after release, a cup of the medium for rearing fly larvae was set in the cage for oviposition for 7 hours. The egg laid on the medium were collected and kept on the moistened filter paper in a Petri dish. One day later, unhatched eggs were assessed and the ratio of the egg hatch inhibition (REHI) was calculated by the following equation: [formula]

Assay [3] deals with house fly (Musca domestica). As to the kind of experiment: Larvicidal test against larvae of house fly (Test Example 4). The conditions noted are these: feed or water, 240 h, 10 ppm in feed, second instar larvae, 10th day after release, emerged adults counted. As to the method:
Powder feed for test animals (manufactured by Oriental Kobo Kogyo K.K.) and bran were mixed in a weight ratio of 1:1 and pulverized, and 10 g of the mixture was packed in an ice cream cup. Each of the formulations containing the active ingredients, was dispersed in water, and 10 ml of the dispersion was added to the mixture in the ice cream cup and thoroughly mixed to adjust the concentration of the active ingredient to 10 ppm. Into the ice cream cup, 20 larvae of house fly (Musca domestica) in second instar were released, and kept in a constant temperature chamber with lightening at 26° C. On the 10th day after the release, the emerged adults were counted, and the mortality was calculated in accordance with the following equation. [formula]

Assay [4] deals with house mosquito (Cullex pipiens pallens). The experiment in a line: Larvicidal test against larvae of house mosquito (Test Example 5). The conditions noted are these: 216 h, 2.5 ppb, 9th day after release, 26° C. The procedure: Two hundreds ml of a diluted solution containing 2.5 ppb of each active ingredient was poured into a jar and 20 larvae of house mosquito (Cullex pipiens pallens) were released into the jar. Then, the jar was kept in a constant temperature chamber with lightening at 26° C. Larvae were fed every other day with 1-2 mg of powdered feed. On the 9th day after the release, dead insects were counted, and the mortality was calculated in the same manner as in Test Example 2. The results are shown in […]

`CN(C(=O)NC(=O)c1c(F)cccc1F)c1ccc(Oc2ccc(C(F)(F)F)cc2Cl)c(Cl)c1F` [compound 13, N-[3-chloro-4-(2-chloro-4-trifluoromethylphenoxy)-2-fluorophenyl]-N'-(2,6-difluorobenzoyl)-N-methylurea] came in with a mortality at 200 ppm in assay [1] of 99%. Moreover, the inhibition at 100 µg/g in assay [2] is 100%. In assay [3], this molecule gave a mortality at 10 ppm of 100%.
Regarding `CN(C(=O)NC(=O)c1c(F)cccc1F)c1cc(F)c(-c2ccc(C(F)(F)F)cc2)cc1F` [Compound No. 24], in assay [2], the inhibition at 100 µg/g came to 100%. In assay [3], this molecule had a mortality at 10 ppm of 100%.
For the molecule `CN(C(=O)NC(=O)c1c(F)cccc1F)c1ccc(Oc2ncc(C(F)(F)F)cc2Cl)c(F)c1` [Compound No. 3, N-{4-[3-chloro-5-trifluoromethyl-2-pyridyloxy]-3-fluorophenyl}-N'-(2,6-difluorobenzoyl)-N-methylurea], the inhibition at 100 µg/g in assay [2] is 88%. The same molecule registered a mortality at 0.0025 ppm in assay [4] of 100%.
`CN(C(=O)NC(=O)c1c(F)cccc1F)c1ccc(Oc2ncc(C(F)(F)F)cc2Cl)c(F)c1F` [Compound No. 2, N-[4-(3-chloro-5-trifluoromethyl-2-pyridyloxy)-2,3-difluorophenyl]-N'-(2,6, -difluorobenzoyl)-N-methylurea]: the mortality at 0.0025 ppm in assay [4] was determined as 90%.
The molecule `COC(=O)c1cc(N(C)C(=O)NC(=O)c2c(F)cccc2F)cc(C)c1Oc1ncc(C(F)(F)F)cc1Cl` [Compound No. 6] came in with a mortality at 10 ppm in assay [3] of 90%.
For `CN(C(=O)NC(=O)c1c(F)cccc1F)c1cc(Cl)c(Oc2ncc(C(F)(F)F)cc2Cl)c(Cl)c1` [Compound No. 1, N-[3,5-dichloro-4-(3-chloro-5-trifluoromethyl-2-pyridyloxy)phenyl]-N'-(2,6difluorobenzoyl)-N-methylurea], in assay [2], the inhibition at 100 µg/g was 100%. Also, the mortality at 0.0025 ppm in assay [4] was determined as 100%.
Molecule `CN(C(=O)NC(=O)c1c(F)cccc1F)c1ccc(Oc2ccc(C(F)(F)F)cc2Cl)c(F)c1` [Compound No. 4, N-{4-[2-chloro-4-trifluoromethylphenoxy]-3-fluorophenyl}-N'-(2,6-difluorobenzoyl)-N-methylurea] gave a mortality at 800 ppm in assay [1] of 90%. The molecule also gave a mortality at 0.0025 ppm in assay [4] of 100%.
Turning to `CN(C(=O)NC(=O)c1c(F)cccc1F)c1ccc(Oc2ccc(C(F)(F)F)cc2Cl)cc1` [Compound No. 18, N-[4-(2-chloro-4-trifluoromethylphenoxy)phenyl]-N'-(2,6-difluorobenzoyl)-N-methylurea], the mortality at 200 ppm in assay [1] came to 100%.
In assay [1], `CN(C(=O)NC(=O)c1c(F)cccc1F)c1ccc(Oc2ccc(C(F)(F)F)cc2Cl)c(Cl)c1` [compound 12, N-[3-chloro-4-(2-chloro-4-trifluoromethylphenoxy)phenyl]-N'-(2,6-difluorobenzoyl)-N-methylurea] came in with a mortality at 200 ppm of 100% and a mortality at 800 ppm of 100%. Moreover, in assay [2], the inhibition at 100 µg/g was found to be 100%. In assay [3], this molecule yielded a mortality at 10 ppm of 100%.

The mortality is the share of the test organisms that died. Higher therefore signals a strong lethal effect.

These data come from patent US4985449A, “N-benzoyl-N-pyridyloxy phenyl urea compounds and pesticide compositions containing them” (Ishihara Sangyo Kaisha Ltd., priority 1986, dated 1991).
